# According to US20230365592A1 (Agios Pharmaceuticals, Inc., priority 2022, published 2023):
# Target: T1, human PAH with the R408W mutation (Homo sapiens, UniProt P00439, R408W)
# T1 construct: expressed in transfected cells
# T1 sequence (P00439 1-452 R408W): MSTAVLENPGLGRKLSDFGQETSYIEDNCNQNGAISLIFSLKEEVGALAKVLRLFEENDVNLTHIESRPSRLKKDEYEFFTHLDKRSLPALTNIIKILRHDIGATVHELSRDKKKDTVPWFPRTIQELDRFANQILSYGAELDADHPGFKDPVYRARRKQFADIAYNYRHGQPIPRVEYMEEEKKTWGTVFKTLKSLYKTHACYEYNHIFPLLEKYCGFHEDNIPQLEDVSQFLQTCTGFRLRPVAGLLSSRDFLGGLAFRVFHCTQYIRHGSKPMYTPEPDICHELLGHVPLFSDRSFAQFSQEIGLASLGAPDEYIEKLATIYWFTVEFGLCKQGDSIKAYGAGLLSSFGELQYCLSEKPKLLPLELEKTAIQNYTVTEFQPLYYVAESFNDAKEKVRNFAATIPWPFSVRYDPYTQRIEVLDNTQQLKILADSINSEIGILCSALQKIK
# Experiment: Cell Based Phenylalanine Flux Assay;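 also: after compound treatment, cells received sepiapterin plus isotope-labelled Phenylalanine for 4 hours, then labelled Tyrosine in the medium was quantified, 10-point 2-fold dilution series run in duplicate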
# Settings: A375 cells expressing human R408W PAH; 24 hrs compound incubation; 13C-Tyrosine by LC-MS; average where tested multiple times; read-out: AC50
row,Compound,AC50
1,"Cc1cccn2nc([C@H]3c4nc[nH]c4CCN3C(=O)c3nnc(-c4cn(C)cn4)o3)cc12 [Example 807, (R)-(5-(1-methyl-1H-imidazol-4-yl)-1,3,4-oxadiazol-2-yl)(4-(4-methylpyrazolo[1,5-a]pyridin-2-yl)-6,7-dihydro-1H-imidazo[4,5-c]pyridin-5(4H)-yl)methanone]",> 5000 nM
2,"Cn1cnc(-c2nnc(C(=O)N3CCc4[nH]cnc4[C@@H]3c3cc4c(F)cccn4n3)o2)c1 [Example 808, (R)-(4-(4-fluoropyrazolo[1,5-a]pyridin-2-yl)-6,7-dihydro-1H-imidazo[4,5-c]pyridin-5(4H)-yl)(5-(1-methyl-1H-imidazol-4-yl)-1,3,4-oxadiazol-2-yl)methanone]",> 5000 nM
3,"Cn1cnc(-c2nnc(C(=O)N3CCc4[nH]cnc4[C@H]3c3cc4c(F)cccn4n3)o2)c1 [Example 809, (S)-(4-(4-fluoropyrazolo[1,5-a]pyridin-2-yl)-6,7-dihydro-1H-imidazo[4,5-c]pyridin-5(4H)-yl)(5-(1-methyl-1H-imidazol-4-yl)-1,3,4-oxadiazol-2-yl)methanone]",500 to 1000 nM
4,"CC(C)(O)c1nc(C(F)F)c(C(=O)N2CCc3[nH]cnc3[C@H]2c2cc3c(C(F)(F)F)cccn3n2)o1 [Example 810, (S)-(4-(difluoromethyl)-2-(2-hydroxypropan-2-yl)oxazol-5-yl)(4-(4-(trifluoromethyl)pyrazolo[1,5-a]pyridin-2-yl)-6,7-dihydro-1H-imidazo[4,5-c]pyridin-5(4H)-yl)methanone]",< 500 nM
5,"CC(C)(O)c1nc(C(F)F)c(C(=O)N2CCc3[nH]cnc3[C@@H]2c2cc3c(C(F)(F)F)cccn3n2)o1 [Example 811, (R)-(4-(difluoromethyl)-2-(2-hydroxypropan-2-yl)oxazol-5-yl)(4-(4-(trifluoromethyl)pyrazolo[1,5-a]pyridin-2-yl)-6,7-dihydro-1H-imidazo[4,5-c]pyridin-5(4H)-yl)methanone]",1000 to 5000 nM
6,"Cc1ccc2cc([C@@H]3c4nc[nH]c4CCN3C(=O)c3nnc(-c4ccccn4)o3)nn2c1 [Example 812, (S)-(4-(6-methylpyrazolo[1,5-a]pyridin-2-yl)-6,7-dihydro-1H-imidazo[4,5-c]pyridin-5(4H)-yl)(5-(pyridin-2-yl)-1,3,4-oxadiazol-2-yl)methanone]",500 to 1000 nM
7,"Cc1ccc2cc([C@H]3c4nc[nH]c4CCN3C(=O)c3nnc(-c4ccccn4)o3)nn2c1 [Example 813, (R)-(4-(6-methylpyrazolo[1,5-a]pyridin-2-yl)-6,7-dihydro-1H-imidazo[4,5-c]pyridin-5(4H)-yl)(5-(pyridin-2-yl)-1,3,4-oxadiazol-2-yl)methanone]",> 5000 nM
8,"Cc1ccc2cc([C@@H]3c4nc[nH]c4CCN3C(=O)c3nnc(-c4ccn(C)n4)o3)nn2c1 [Example 814, (S)-(5-(1-methyl-1H-pyrazol-3-yl)-1,3,4-oxadiazol-2-yl)(4-(6-methylpyrazolo[1,5-a]pyridin-2-yl)-6,7-dihydro-1H-imidazo[4,5-c]pyridin-5(4H)-yl)methanone]",< 500 nM
9,"Cc1ccc2cc([C@H]3c4nc[nH]c4CCN3C(=O)c3nnc(-c4ccn(C)n4)o3)nn2c1 [Example 815, (R)-(5-(1-methyl-1H-pyrazol-3-yl)-1,3,4-oxadiazol-2-yl)(4-(6-methylpyrazolo[1,5-a]pyridin-2-yl)-6,7-dihydro-1H-imidazo[4,5-c]pyridin-5(4H)-yl)methanone]",> 5000 nM
10,"COc1ccc(-c2nnc(C(=O)N3CCc4[nH]cnc4[C@@H]3c3cc4c(C)cccn4n3)o2)nc1 [Example 816, (R)-(5-(5-methoxypyridin-2-yl)-1,3,4-oxadiazol-2-yl)(4-(4-methylpyrazolo[1,5-a]pyridin-2-yl)-6,7-dihydro-1H-imidazo[4,5-c]pyridin-5(4H)-yl)methanone]",> 5000 nM
11,"COc1ccc(-c2nnc(C(=O)N3CCc4[nH]cnc4[C@H]3c3cc4c(C)cccn4n3)o2)nc1 [Example 817, (S)-(5-(5-methoxypyridin-2-yl)-1,3,4-oxadiazol-2-yl)(4-(4-methylpyrazolo[1,5-a]pyridin-2-yl)-6,7-dihydro-1H-imidazo[4,5-c]pyridin-5(4H)-yl)methanone]",< 500 nM
12,"Cc1cccn2nc([C@H]3c4nc[nH]c4CCN3C(=O)c3nnc(-c4ncccc4F)o3)cc12 [Example 818, (R)-(5-(3-fluoropyridin-2-yl)-1,3,4-oxadiazol-2-yl)(4-(4-methylpyrazolo[1,5-a]pyridin-2-yl)-6,7-dihydro-1H-imidazo[4,5-c]pyridin-5(4H)-yl)methanone]",> 5000 nM
13,"Cc1cccn2nc([C@@H]3c4nc[nH]c4CCN3C(=O)c3nnc(-c4ncccc4F)o3)cc12 [Example 819, (S)-(5-(3-fluoropyridin-2-yl)-1,3,4-oxadiazol-2-yl)(4-(4-methylpyrazolo[1,5-a]pyridin-2-yl)-6,7-dihydro-1H-imidazo[4,5-c]pyridin-5(4H)-yl)methanone]",< 500 nM
14,"Cc1cccn2nc([C@@H]3c4nc[nH]c4CCN3C(=O)c3nnc(-c4cnn(C(F)F)c4)o3)cc12 [Example 820, (S)-(5-(1-(difluoromethyl)-1H-pyrazol-4-yl)-1,3,4-oxadiazol-2-yl)(4-(4-methylpyrazolo[1,5-a]pyridin-2-yl)-6,7-dihydro-1H-imidazo[4,5-c]pyridin-5(4H)-yl)methanone]",< 500 nM
15,"Cc1cccn2nc([C@H]3c4nc[nH]c4CCN3C(=O)c3nnc(-c4cnn(C(F)F)c4)o3)cc12 [Example 821, (R)-(5-(1-(difluoromethyl)-1H-pyrazol-4-yl)-1,3,4-oxadiazol-2-yl)(4-(4-methylpyrazolo[1,5-a]pyridin-2-yl)-6,7-dihydro-1H-imidazo[4,5-c]pyridin-5(4H)-yl)methanone]",> 5000 nM
16,"Cc1cccn2nc([C@@H]3c4nc[nH]c4CCN3C(=O)c3nnc(-c4ccn(C(F)F)n4)o3)cc12 [Example 822, (S)-(5-(1-(difluoromethyl)-1H-pyrazol-3-yl)-1,3,4-oxadiazol-2-yl)(4-(4-methylpyrazolo[1,5-a]pyridin-2-yl)-6,7-dihydro-1H-imidazo[4,5-c]pyridin-5(4H)-yl)methanone]",< 500 nM
17,"Cc1cccn2nc([C@H]3c4nc[nH]c4CCN3C(=O)c3nnc(-c4ccn(C(F)F)n4)o3)cc12 [Example 823, (R)-(5-(1-(difluoromethyl)-1H-pyrazol-3-yl)-1,3,4-oxadiazol-2-yl)(4-(4-methylpyrazolo[1,5-a]pyridin-2-yl)-6,7-dihydro-1H-imidazo[4,5-c]pyridin-5(4H)-yl)methanone]",1000 to 5000 nM
18,"O=C(c1nnc(-c2ccn(C(F)F)n2)o1)N1CCc2[nH]cnc2[C@@H]1c1cc2c(F)cccn2n1 [Example 824, (R)-(5-(1-(difluoromethyl)-1H-pyrazol-3-yl)-1,3,4-oxadiazol-2-yl)(4-(4-fluoropyrazolo[1,5-a]pyridin-2-yl)-6,7-dihydro-1H-imidazo[4,5-c]pyridin-5(4H)-yl)methanone]",> 5000 nM
19,"O=C(c1nnc(-c2ccn(C(F)F)n2)o1)N1CCc2[nH]cnc2[C@H]1c1cc2c(F)cccn2n1 [Example 825, (S)-(5-(1-(difluoromethyl)-1H-pyrazol-3-yl)-1,3,4-oxadiazol-2-yl)(4-(4-fluoropyrazolo[1,5-a]pyridin-2-yl)-6,7-dihydro-1H-imidazo[4,5-c]pyridin-5(4H)-yl)methanone]",< 500 nM
20,"Cn1cc(-c2nnc(C(=O)N3CCc4[nH]cnc4[C@H]3c3cc4c(C(F)(F)F)cccn4n3)o2)cn1 [Example 828, (S)-(5-(1-methyl-1H-pyrazol-4-yl)-1,3,4-oxadiazol-2-yl)(4-(4-(trifluoromethyl)pyrazolo[1,5-a]pyridin-2-yl)-6,7-dihydro-1H-imidazo[4,5-c]pyridin-5(4H)-yl)methanone]",< 500 nM
21,"Cn1cc(-c2nnc(C(=O)N3CCc4[nH]cnc4[C@@H]3c3cc4c(C(F)(F)F)cccn4n3)o2)cn1 [Example 829, (R)-(5-(1-methyl-1H-pyrazol-4-yl)-1,3,4-oxadiazol-2-yl)(4-(4-(trifluoromethyl)pyrazolo[1,5-a]pyridin-2-yl)-6,7-dihydro-1H-imidazo[4,5-c]pyridin-5(4H)-yl)methanone]",> 5000 nM
22,"O=C(c1nnc(-c2ccncc2)o1)N1CCc2[nH]cnc2[C@H]1c1cc2c(F)cccn2n1 [Example 830, (S)-(4-(4-fluoropyrazolo[1,5-a]pyridin-2-yl)-6,7-dihydro-1H-imidazo[4,5-c]pyridin-5(4H)-yl)(5-(pyridin-4-yl)-1,3,4-oxadiazol-2-yl)methanone]",< 500 nM
23,"O=C(c1nnc(-c2ccncc2)o1)N1CCc2[nH]cnc2[C@@H]1c1cc2c(F)cccn2n1 [Example 831, (R)-(4-(4-fluoropyrazolo[1,5-a]pyridin-2-yl)-6,7-dihydro-1H-imidazo[4,5-c]pyridin-5(4H)-yl)(5-(pyridin-4-yl)-1,3,4-oxadiazol-2-yl)methanone]",1000 to 5000 nM
24,"O=C(c1nnc(-c2cnn(C3CCC3)c2)o1)N1CCc2[nH]cnc2[C@H]1c1cc2c(F)cccn2n1 [Example 832, (S)-(5-(1-cyclobutyl-1H-pyrazol-4-yl)-1,3,4-oxadiazol-2-yl)(4-(4-fluoropyrazolo[1,5-a]pyridin-2-yl)-6,7-dihydro-1H-imidazo[4,5-c]pyridin-5(4H)-yl)methanone]",< 500 nM
25,"O=C(c1nnc(-c2cnn(S(=O)(=O)C3CC3)c2)o1)N1CCc2[nH]cnc2[C@H]1c1cc2c(F)cccn2n1 [Example 834, (S)-(5-(1-(cyclopropylsulfonyl)-1H-pyrazol-4-yl)-1,3,4-oxadiazol-2-yl)(4-(4-fluoropyrazolo[1,5-a]pyridin-2-yl)-6,7-dihydro-1H-imidazo[4,5-c]pyridin-5(4H)-yl)methanone]",500 to 1000 nM
